# Publication PMC8429736, “Pharmacological characterization of mutant huntingtin aggregate-directed PET imaging tracer candidates” (Scientific Reports, 2021)
# Where two headings read alike, the source gives them in different places.
# How the values were obtained:
# [1] = target: mHTT aggregates in HOM zQ175 HD mouse brain sections; assay: In vitro autoradiography (ARG) saturation binding, HOM zQ175 brain sections; settings: HOM zQ175 12 months, cortex
# Protocol: (§1) Twenty µm-thick sections were prepared from brains of disease mouse models and WT mice or human post-mortem brain samples by using a cryostat, mounted on superfrost slides and stored at -80 °C for a maximum of 2 weeks. On the day of the experiment, slides were adapted to room temperature for 30 min and then equilibrated by immersion into assay buffer (50 mM Tris–HCl pH 7.4; 120 mM NaCl; 5 mM KCl; 2 mM CaCl2; 1 mM MgCl2) for 20 min at room temperature.
# (§2) Radioligand solutions were prepared in assay buffer. Optimal radioligand concentrations were determined in advance based on signal-to-background ratio obtained in mouse or human brain tissue. The solutions were mixed in a Coplin jar (Sigma, S5516-6EA) by gently shaking at 175 rpm for 10 min at room temperature. Sections were incubated by immersion into assay buffer containing either only radioligand (total binding or TB) or radioligand plus 10 µM of unlabeled compound (non-specific binding or NSB) for 60 min at room temperature. Afterwards slides were washed three times for 10 min with ice-cold washing buffer (50 mM Tris–HCl (pH 7.4)) at 4 °C and dipped for three seconds in ice-cold distilled water to remove buffer salts. […]
# Q46 aggregates [2] = assay: RBA saturation binding, Q46 aggregates; settings: tritiated compound; mean ± SD
# Protocol: (§3) For N-terminal tag cleavage, proteins at 30 µM in 2 mL reaction tubes were incubated with 150 µg/mL thrombin (Sigma, T4648) in 50 mM Tris (pH 8.0), 150 mM NaCl, 2 mM CaCl2 for 16 h at 37 °C.
# For radioligand binding assays (RBA) (see below) and radiometric filter trap assays (RAFTA) (see below), aggregates were separated by centrifugation (5 min 16,000×g) and resuspended with assay buffer (50 mM Tris pH 8.0, 150 mM NaCl) (see Supplementary Fig. S2B). […]
# Samples were then transferred onto a 96-well GF/B filter plate (Perkin Elmer, #6005177) using a Filtermate Harvester, aspirated by vacuum and wells washed twice with 200 µL PBS. […] The tops of the plates were sealed, and the plates were incubated for 15 min in the dark and counted in a TopCount or MicroBeta2 reader (both Perkin Elmer).
# For saturation binding experiments, aggregate lysate preparation and final concentration in the assay, assay buffer, incubation times and plate processing were identical to the competition format. […] Specific binding (SB) was calculated as full binding minus full competition (in the presence of excess unlabeled ligand) and a hyperbolic mono-phasic fit was applied using GraphPad Prism to determine Kd and Bmax.
# [3] = tested on: mHTT aggregates in human HD brain sections; assay: ARG, human post-mortem HD frontal cortex sections; format: binding
# Exon1-Q46 aggregates = target: T1, Exon1-Q46 aggregates (Homo sapiens, UniProt P42858, INS38QQQQQQQQQQQQQQQQQQQQQQQQQ); assay: RBA saturation binding, recombinant Exon1-Q46 aggregates
# T1 construct: MBP-HTT(1-89)Q46-His(6x); MBP (N, cleaved yes); made in house; host or cells: E. coli BL21 (DE3)
# T1 sequence (P42858 with tags, fused parts or gaps with the stated changes): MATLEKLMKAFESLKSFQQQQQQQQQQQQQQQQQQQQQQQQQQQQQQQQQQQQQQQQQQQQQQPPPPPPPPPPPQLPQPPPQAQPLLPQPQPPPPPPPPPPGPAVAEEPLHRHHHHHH
# Protocol: as §3
# For radioligand binding assays (RBA) (see below) and radiometric filter trap assays (RAFTA) (see below), aggregates were separated by centrifugation (5 min 16,000×g) and resuspended with assay buffer (50 mM Tris pH 8.0, 150 mM NaCl) (see Supplementary Fig. S2B). Protein concentrations always refer to the starting peptide concentrations (i.e., peptide concentration applied in the aggregation reaction before thrombin cleavage) since post-cleaved aggregates are heterogeneous and the number of peptides per aggregate is unknown.
# (§4) Samples were then transferred onto a 96-well GF/B filter plate (Perkin Elmer, #6005177) using a Filtermate Harvester, aspirated by vacuum and wells washed twice with 200 µL PBS. After drying the filter plates for 1 h at 55 °C the back of the plate was sealed with aluminum cover and 30 µL of scintillation fluid (Perkin Elmer, #6013641) per well was added. The tops of the plates were sealed, and the plates were incubated for 15 min in the dark and counted in a TopCount or MicroBeta2 reader (both Perkin Elmer).
# For saturation binding experiments, aggregate lysate preparation and final concentration in the assay, assay buffer, incubation times and plate processing were identical to the competition format. Radioligand was titrated up to 100 nM. Raw cpm were converted into nM using a calibration line of total added radioligand without washing and filtering (spiked onto the filter plate and dried) (e.g., X) and normalized to the concentration of protein (e.g., Y) to finally obtain […] (e.g., X/Y). Specific binding (SB) was calculated as full binding minus full competition (in the presence of excess unlabeled ligand) and a hyperbolic mono-phasic fit was applied using GraphPad Prism to determine Kd and Bmax.
# Q46 aggregates [4] = assay: RBA competition binding against tritiated 3, Q46 aggregates; settings: 0.3 nM tritiated 3 as radioligand; 1 µM aggregates; mean ± SD
# Protocol: For the competition assay format, Q46 or Exon1-Q46 aggregates at 1 µM (sample volume 150 µL) were pre-incubated in a 96-well round bottom plate (Corning, #3365) for 20 min with test compounds at room temperature (assay buffer 50 mM Tris–HCl pH 8.0, 150 mM NaCl). […] Radioligand 3 at 0.3 nM was added and incubated for 1 h at 37 °C.
# as §4
# Raw sample data collected as counts per minute (cpm) were normalized towards assay controls: 0% inhibition = radioligand + protein + vehicle, 100% inhibition = radioligand + protein + 1 µM unlabeled ligand. A 4-parameter […] fit was applied to generate IC50 values.
# [5] = tested on: mHTT aggregates in R6/2 mice brain sections; assay: In vitro ARG, R6/2 mouse brain sections; format: binding; settings: 4-, 8- and 12-week-old R6/2 mice
# Protocol: as §1, §2
compound,measurement,setting,value
COc1ccc(COc2ccc3oc(-c4ccc(=O)n(C)n4)nc3c2)nc1 [CHDI-180],Kd,[1],1.1 nM
same,ARG Bmax,[1]; per mg tissue,163.0 fmol/mg
same,Kd,Q46 aggregates [2],7.7 ± 3.3 nM
same,NSB in HD brain sections,[3]; 1 nM radioligand plus cold compound,below 0.5 fmol/mg tissue
same,binding to frontal cortical sections from HD donors,"[3]; 1 nM radioligand, gray matter",2.0 ± 0.4 fmol/mg tissue
same,white matter binding,"[3]; 1 nM radioligand, human frontal cortex sections",≤ 0.5 fmol/mg tissue
same,Bmax,Exon1-Q46 aggregates; representative single experiment (Fig. 2A),0.3 nmol/μmol
same,Kd,"Exon1-Q46 aggregates; representative single experiment (Fig. 2A), read-out: Kd",3.2 nM
same,Kd,"Exon1-Q46 aggregates; tritiated compound, mean ± SD, read-out: Kd Exon1-Q46",2.6 ± 0.9 nM
same,IC50,Q46 aggregates [4],1.2 ± 0.5 nM
same,"specific binding to STR, CTX and HPC with age",[5],age-dependent increase in specific binding
